Experimental data as given in patent US11440904B2, “Substituted pyrimidines, pharmaceutical compositions and therapeutic methods thereof” (priority 2017, dated 2022).
pEC50, pIC50: −log10 of the molar value. Where “and” joins values, the source holds several entries; their conditions need not be identical. Equal entries are not always repeated.

Experiments:
EGFR wt = EGFR wt (Homo sapiens (Human), UniProt P00533); assay: 33P ATP HotSpot kinase assay, EGFR wt; assay type: biochemical; conditions: 10 μM ATP
Description: Then, Kinase assays were performed using the “HotSpot” assay platform.
Briefly, specific kinase/substrate pairs along with required cofactors were prepared in reaction buffer; 20 mM Hepes pH 7.5, 10 mM MgCl2, 1 mM EGTA, 0.02% Brij35, 0.02 mg/ml BSA, 0.1 mM Na3VO4, 2 mM DTT, 1% DMSO. Compounds were delivered into the reaction, followed about 20 minutes later by addition of a mixture of ATP (Sigma, St. Louis Mo.) and ^33P ATP (Perkin Elmer, Waltham Mass.) to a final concentration of 10 μM.
Reactions were carried out at room temperature for 120 min, followed by spotting of the reactions onto P81 ion exchange filter paper (Whatman Inc., Piscataway, N.J.). Unbound phosphate was removed by extensive washing of filters in 0.75% phosphoric acid. […] IC50 values and curve fits were obtained using Prism (GraphPad Software).

BMX = BMX (Homo sapiens (Human), UniProt P51813); assay: 33P ATP HotSpot kinase assay, BMX; assay type: biochemical; conditions: 10 μM ATP
Description: (§1) (See, e.g., Ma, et al, 2008 Expert Opin Drug Discov. 3(6): 607-621.)
(§2) Each of Compound-1 to Compound-24 was measured for its inhibitory activity on TEC family kinases, BMX and ITK. The measurement was carried out in the same process as described above, BMX, ITK enzymes were used.

BTK wt = BTK wt (Homo sapiens (Human), UniProt Q06187); assay: 33P ATP HotSpot kinase assay, BTK wt; assay type: biochemical; conditions: 10 μM ATP
Source text: as §1

[1] = biological target: BTK phosphorylation at tyrosine 223 (Homo sapiens (Human), UniProt Q06187); assay: Immunoblot analysis of phospho-BTK(Y223) in Ramos cells; assay type: cell-based; conditions: 1 hr treatment, anti-IgM stimulation, western blot
Description: Ramos cells were cultured in RPMI-1640 medium with 10% fetal bovine serum (FBS) and 1% penicillin/streptomycin (Gibco BRL). Before the assay, Ramos cells were counted and seeded at 1×10^6 cells/mL, cultured overnight in RPMI-1640 medium with 10% FBS, the cells were centrifuged at 950 rpm for 10 min., then 1˜2×10^6 cells were split into each tube in 300 μL medium. The cells were treated with certain compounds of Compound 1-24 at 0˜3 μM for 1 hr. in 37° C., then the cells were stimulated with 10 μg/mL of anti-IgM (BioLegend) for 5 min., followed by 3 min. spin at 2000 rpm. After aspirating the supernatant, 60 μL of RIPA lysis buffer (50 mM Tris-HCl, 1 mM EDTA, 1% NP-40, 0.5% sodium deoxycholate, and 0.1% SDS, pH 7.4, 150 mM NaCl, 1 mM Na3VO4) was added to the cell pellet to lyse the cells on ice for 30 min. After spin at 10,000 rpm for 5 min., 60 μL of the cell lysate was transferred to a fresh tube, and 20 μL of 4× LDS buffer was added to the tube. The samples were boiled on a 100° C. heat block for 10 min. 25 μL lysate was loaded on to SDS-PAGE gel (NuPAGE™ Novex™ 4-12% Bis-Tris Midi Protein Gels, cat. no. WG1402BOX, ThermoFisher) for western blotting analysis per the manufacturer's instructions. Antibodies used for immunoblot analysis include Btk and p-Btk(Y223) (cat. no. 3553 and 5082; Cell Signaling Technology, Beverly, Mass.). p-Btk(Y223) (cat. no. GTX61791; GeneTex, Inc., Irvine, Calif.). Membranes were detected using infrared fluorescence dye (IRDye® 800CW Donkey anti-Rabbit IgG (H+L), cat. no. P/N 925-32213; IRDye® 680RD Donkey anti-Mouse IgG (H+L), cat. no. P/N 925-68072 and scanned on a LiCor Odyssey scanner (LiCor Biosciences, Lincoln, Nebr.).

ITK = ITK (Homo sapiens (Human), UniProt Q08881); assay: 33P ATP HotSpot kinase assay, ITK; assay type: biochemical; conditions: 10 μM ATP
Description: as §1, §2

[2] = biological target: FAK phosphorylation at tyrosine 397 (Homo sapiens (Human), UniProt Q05397); assay: Cell-based FAK(Y397) phosphorylation ELISA in PC3 cells; conditions: 1 hr treatment, read-out: EC50 phospho-FAK(Y397)
Description: After aspirating the supernatant, 100 μL of RIPA lysis buffer (50 mM Tris-HCl, 1 mM EDTA, 1% NP-40, 0.5% sodium deoxycholate, and 0.1% SDS, pH 7.4, 150 mM NaCl, 1 mM Na3VO4) was added to the cell pellet to lyse the cells on ice for 30 min. After spin at 12,000 rpm for 5 min., 90 μL of the cell lysate was transferred to a fresh tube.
For an enzyme-linked immunosorbent assay (ELISA) assay, 10 μL of the lysate was used for p-FAK(Y397) elisa assay. ELISA was done using the FAK [pY397] Phospho-ELISA Kit (ThermoFisher Scientific, KHO0441) according to the manufacturer's instructions. […] During the first incubation, 50 μL standards of known p-FAK (Y397) content and compound treated samples (10 μL lysate) plus 40 μL diluent buffer were pipetted into the wells and let the p-FAK antigen standards and samples bind to the immobilized (capture) antibody on the plate, a rabbit antibody specific for p-FAK (Y397) 50 μL/well was added to the wells, this antibody serves as a detection antibody by binding to the p-FAK protein during a 3 hr. incubation at room temperature. After washing 4 times, a horseradish peroxidase labeled anti-rabbit IgG was added. This binds to the detection antibody. After a 30 min. incubation and washing to remove all the unbound enzyme, a substrate solution (TMB) was added, which was acted upon by the bound enzyme to produce color.

FAK = FAK (Homo sapiens (Human), UniProt Q05397); assay: 33P ATP HotSpot kinase assay, FAK; conditions: read-out: IC50 FAK, 10 μM ATP
EOL-1 cells = assay: Cancer cell growth inhibition, EOL-1; assay type: cell-based; conditions: Homo sapiens, EOL1, 72 hr, cell viability
Description: (§3) In order to test certain compounds of Compounds 1 to 24 for cancer cell growth inhibition, a leukemia cancer cell line EOL-1, and triple negative breast cancer cell line MDA-MB-231 was used.
(§4) EOL-1 and MDA-MB-231 cells were cultured in a RPMI-1640 cell culture medium supplemented with 10% fetal bovine serum (FBS) and 1% penicillin/streptomycin (Gibco BRL).
(§5) The cancer cell lines stored in a liquid nitrogen tank were each quickly thawed at 37° C. water bath, and centrifuged to remove the DMSO in the freezing medium. The resulting cell pellet was mixed with a culture medium, incubated in a culture flask at 37° C. under 5% CO2 for 2 to 3 days. The EOL-1 cells were sub-cultured by 1:5˜10 dilution in fresh culture medium. For MD-MB-231 cells, the culture medium was removed and the remaining cells were washed with PBS (Phosphate Buffered Saline) and trypsinized by trypsin-EDTA. The detached cells were sub-cultured by 1:5˜10 dilution in fresh culture medium.
(§6) For the cell growth inhibition assay, the cells were seeded in 96-well cell culture plates at 5×10^4 cells/well for EOL-1 and 5×10^3 cells/well for MDA-MB-231 cells in 50 μL and incubated at 37° C. under 5% CO2 for 3 to 6 hr. before the compounds were added.
(§7) Certain compounds of Compounds 1-24 were dissolved in dimethylsulfoxide (DMSO) to a concentration of 10 mM. The DMSO solution containing test compound was diluted with a culture medium to a final concentration of 600 μM, and then diluted 100 times to 6 μM as top dose followed by 1:3 serial dilutions, and then add 50 μL diluted compounds to the 50 μL cells, with a final top dose at 3 μM and the plate was incubated at 37° C. under 5% CO2 for 72 hr. The cell viability was determined by Cell Meter™ Fluorimetric Cell Cytotoxicity Assay Kit (AAT Bioquest) according to the manufacturer's instructions. Briefly, thaw and warm up the Assay Solution (Component A) to 37° C., and mix it thoroughly. Add 20 μL/well (96-well plate) of Assay Solution (Component A). Mix the reagents by shaking the plate gently for 30 seconds. Incubate the cells in a 37° C., 5% CO2 incubator for 1-24 hr., protected from light. Monitor the fluorescence intensity (bottom read) at Ex/Em=540/590 nm. Alternatively, read the O.D. at 570 nm (the reference wavelength should be 600 nm) to determine the cell viability in each well.

ERK1 kinase = ERK1 kinase (Homo sapiens (Human), UniProt P27361); assay: 33P ATP HotSpot kinase assay, ERK1; assay type: biochemical; conditions: 10 μM ATP
Description: as §1
Certain compounds of Compound-1 to Compound-24 were measured for its inhibitory activity on ERK1 kinase. The measurement was carried out in the same process as described above, ERK enzyme was used.

[3] = test system: ERK phosphorylation at T202/Y204; assay: Cell-based ERK1/2 (T202/Y204) phosphorylation ELISA in EOL-1 cells; conditions: 3 hr or 15 hr treatment, read-out: EC50 phospho-ERK1/2 (T202/Y204)
Description: EOL-1 cells were cultured in RPMI-1640 medium with 10% fetal bovine serum (FBS) and 1% penicillin/streptomycin (Gibco BRL). Before the assay, EOL-1 cells were counted and seeded at 1×10^6 cells/well in a 6-well plate, cultured overnight in RPMI-1640 medium with 10% FBS. The cells were treated with certain compounds of Compounds 1-24 at 0˜3 μM for 3 hr. or 15 hr. at 37° C., then the cells were harvested, followed by 5 min. spin at 2000 rpm. After aspirating the supernatant, the cells were washed with cold PBS, span again, then 100 μL of RIPA lysis buffer (50 mM Tris-HCl, 1 mM EDTA, 1% NP-40, 0.5% sodium deoxycholate, and 0.1% SDS, pH 7.4, 150 mM NaCl, 1 mM Na3VO4) was added to the cell pellet to lyse the cells on ice for 30 min. After spin at 12,000 rpm for 5 min., 90 μL of the cell lysate was transferred to a fresh tube.
For an enzyme-linked immunosorbent assay (ELISA) assay, 10 μL of the lysate was used for p-ERK1/2 (T202/Y204) elisa assay. ELISA was done using the ERK 1/2 (pT202/Y204 +Total) ELISA Kit (Abcam, ab176660) according to the manufacturer's instructions. Specifically, add 50 μL of all samples or standards to appropriate wells. Add 50 μL of the Antibody Cocktail to each well. Seal the plate and incubate for 1 hr. at r.t. on a plate shaker set to 400 rpm. Wash each well with 3×350 μL 1× Wash Buffer PT. […] This is an endpoint reading.

MDA-MB-231 cells = assay: Cancer cell growth inhibition, MDA-MB-231; assay type: cell-based; conditions: Homo sapiens, 72 hr, cell viability
Description: as §3, §4, §5, §6, §7

EGFR wt, sequence (P00533 25-1210): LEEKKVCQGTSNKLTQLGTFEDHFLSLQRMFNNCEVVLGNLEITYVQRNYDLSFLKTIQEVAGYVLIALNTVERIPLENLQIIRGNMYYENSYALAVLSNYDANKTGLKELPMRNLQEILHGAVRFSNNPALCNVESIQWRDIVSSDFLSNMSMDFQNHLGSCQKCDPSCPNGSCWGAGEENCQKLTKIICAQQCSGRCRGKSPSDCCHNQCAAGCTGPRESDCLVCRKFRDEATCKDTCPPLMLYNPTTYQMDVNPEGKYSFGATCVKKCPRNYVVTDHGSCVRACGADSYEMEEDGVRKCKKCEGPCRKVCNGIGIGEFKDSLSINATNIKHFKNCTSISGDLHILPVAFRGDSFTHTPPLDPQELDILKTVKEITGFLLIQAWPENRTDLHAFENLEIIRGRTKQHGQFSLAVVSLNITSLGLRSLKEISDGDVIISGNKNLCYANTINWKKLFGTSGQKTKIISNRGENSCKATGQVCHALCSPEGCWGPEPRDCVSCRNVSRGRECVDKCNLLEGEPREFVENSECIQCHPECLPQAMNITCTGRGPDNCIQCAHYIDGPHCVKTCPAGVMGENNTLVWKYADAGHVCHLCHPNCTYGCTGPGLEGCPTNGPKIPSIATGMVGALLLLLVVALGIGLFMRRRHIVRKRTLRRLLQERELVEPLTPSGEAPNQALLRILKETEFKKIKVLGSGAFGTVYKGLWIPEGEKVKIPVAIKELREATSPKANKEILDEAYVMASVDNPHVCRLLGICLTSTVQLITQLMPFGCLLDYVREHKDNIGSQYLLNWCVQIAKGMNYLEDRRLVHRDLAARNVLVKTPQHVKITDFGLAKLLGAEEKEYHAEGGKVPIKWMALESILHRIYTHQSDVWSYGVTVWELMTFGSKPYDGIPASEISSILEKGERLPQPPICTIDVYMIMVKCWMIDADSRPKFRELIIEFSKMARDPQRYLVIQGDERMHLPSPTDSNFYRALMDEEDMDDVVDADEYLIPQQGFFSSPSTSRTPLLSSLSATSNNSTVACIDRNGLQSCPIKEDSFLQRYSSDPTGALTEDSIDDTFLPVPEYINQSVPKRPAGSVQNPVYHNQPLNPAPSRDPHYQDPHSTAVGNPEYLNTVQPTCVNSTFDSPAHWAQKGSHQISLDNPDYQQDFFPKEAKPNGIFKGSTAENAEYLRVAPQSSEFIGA
FAK phosphorylation at tyrosine 397, sequence (Q05397 whole entry): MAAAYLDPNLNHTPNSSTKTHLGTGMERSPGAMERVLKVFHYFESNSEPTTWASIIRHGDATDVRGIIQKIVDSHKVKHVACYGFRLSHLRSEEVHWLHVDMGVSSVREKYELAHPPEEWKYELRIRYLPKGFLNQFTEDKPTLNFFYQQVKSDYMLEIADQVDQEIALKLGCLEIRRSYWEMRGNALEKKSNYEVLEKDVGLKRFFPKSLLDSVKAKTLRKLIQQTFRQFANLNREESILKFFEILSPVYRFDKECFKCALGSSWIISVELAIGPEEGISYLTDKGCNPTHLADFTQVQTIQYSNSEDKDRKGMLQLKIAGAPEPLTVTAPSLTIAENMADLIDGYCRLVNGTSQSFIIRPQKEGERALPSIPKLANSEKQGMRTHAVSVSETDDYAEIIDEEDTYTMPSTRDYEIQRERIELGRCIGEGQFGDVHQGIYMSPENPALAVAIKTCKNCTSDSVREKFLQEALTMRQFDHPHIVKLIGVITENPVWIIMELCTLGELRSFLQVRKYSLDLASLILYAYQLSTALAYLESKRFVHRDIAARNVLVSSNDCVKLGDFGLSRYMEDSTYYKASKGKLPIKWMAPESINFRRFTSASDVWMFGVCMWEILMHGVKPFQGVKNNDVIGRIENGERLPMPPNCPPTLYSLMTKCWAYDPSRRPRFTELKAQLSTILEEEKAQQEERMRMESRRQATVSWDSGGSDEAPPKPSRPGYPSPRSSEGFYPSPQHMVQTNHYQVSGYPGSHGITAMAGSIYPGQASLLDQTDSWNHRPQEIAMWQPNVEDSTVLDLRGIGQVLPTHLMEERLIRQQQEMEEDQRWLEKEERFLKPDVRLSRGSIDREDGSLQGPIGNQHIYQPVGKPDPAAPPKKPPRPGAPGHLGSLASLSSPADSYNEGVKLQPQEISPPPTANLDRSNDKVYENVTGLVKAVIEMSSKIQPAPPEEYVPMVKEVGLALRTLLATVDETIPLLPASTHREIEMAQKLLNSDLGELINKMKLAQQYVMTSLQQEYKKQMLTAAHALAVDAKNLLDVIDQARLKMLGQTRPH
FAK, sequence (Q05397 whole entry): as above
ERK1 kinase, sequence (P27361 whole entry): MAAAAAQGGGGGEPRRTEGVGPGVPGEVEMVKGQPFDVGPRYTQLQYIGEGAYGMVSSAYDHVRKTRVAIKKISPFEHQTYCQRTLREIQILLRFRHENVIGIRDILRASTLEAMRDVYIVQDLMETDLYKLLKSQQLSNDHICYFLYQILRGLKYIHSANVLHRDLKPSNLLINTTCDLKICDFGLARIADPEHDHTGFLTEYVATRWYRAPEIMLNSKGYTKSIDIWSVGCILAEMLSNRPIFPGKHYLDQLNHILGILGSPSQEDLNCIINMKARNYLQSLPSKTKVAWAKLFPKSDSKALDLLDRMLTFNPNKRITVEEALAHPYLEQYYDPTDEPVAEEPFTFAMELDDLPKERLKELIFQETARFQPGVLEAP
BMX, sequence (P51813 whole entry): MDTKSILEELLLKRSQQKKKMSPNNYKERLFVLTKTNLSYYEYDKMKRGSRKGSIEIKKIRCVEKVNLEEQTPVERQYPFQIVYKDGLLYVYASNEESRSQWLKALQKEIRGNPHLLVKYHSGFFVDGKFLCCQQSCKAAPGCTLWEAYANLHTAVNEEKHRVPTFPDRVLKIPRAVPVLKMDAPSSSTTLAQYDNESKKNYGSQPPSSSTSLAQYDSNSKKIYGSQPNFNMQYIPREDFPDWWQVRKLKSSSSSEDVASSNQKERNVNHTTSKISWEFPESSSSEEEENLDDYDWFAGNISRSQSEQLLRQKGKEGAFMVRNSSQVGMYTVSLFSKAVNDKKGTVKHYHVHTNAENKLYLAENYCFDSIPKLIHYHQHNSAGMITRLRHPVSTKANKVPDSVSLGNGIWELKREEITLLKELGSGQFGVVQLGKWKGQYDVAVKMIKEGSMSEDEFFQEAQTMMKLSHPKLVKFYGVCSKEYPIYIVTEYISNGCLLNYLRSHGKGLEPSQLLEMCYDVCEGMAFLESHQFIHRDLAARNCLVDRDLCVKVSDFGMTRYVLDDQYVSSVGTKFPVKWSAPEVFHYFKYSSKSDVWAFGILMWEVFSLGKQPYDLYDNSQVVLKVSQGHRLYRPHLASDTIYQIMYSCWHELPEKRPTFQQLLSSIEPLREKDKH
ITK, sequence (Q08881 whole entry): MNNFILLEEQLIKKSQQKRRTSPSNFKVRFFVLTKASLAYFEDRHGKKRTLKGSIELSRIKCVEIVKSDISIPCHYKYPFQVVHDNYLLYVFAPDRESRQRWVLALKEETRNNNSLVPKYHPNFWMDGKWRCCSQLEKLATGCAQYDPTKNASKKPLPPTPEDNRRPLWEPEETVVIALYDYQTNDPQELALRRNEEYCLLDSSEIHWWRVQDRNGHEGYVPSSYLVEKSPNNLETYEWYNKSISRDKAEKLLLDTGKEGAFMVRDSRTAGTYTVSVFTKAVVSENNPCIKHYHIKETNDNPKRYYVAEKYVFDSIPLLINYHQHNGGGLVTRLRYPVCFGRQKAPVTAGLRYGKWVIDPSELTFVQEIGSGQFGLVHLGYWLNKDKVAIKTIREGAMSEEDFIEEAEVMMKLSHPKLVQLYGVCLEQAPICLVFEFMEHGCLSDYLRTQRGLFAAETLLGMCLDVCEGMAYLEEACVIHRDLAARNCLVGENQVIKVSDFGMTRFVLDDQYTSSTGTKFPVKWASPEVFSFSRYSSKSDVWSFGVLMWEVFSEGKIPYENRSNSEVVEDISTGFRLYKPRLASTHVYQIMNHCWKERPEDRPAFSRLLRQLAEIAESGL
BTK wt, sequence (Q06187 whole entry): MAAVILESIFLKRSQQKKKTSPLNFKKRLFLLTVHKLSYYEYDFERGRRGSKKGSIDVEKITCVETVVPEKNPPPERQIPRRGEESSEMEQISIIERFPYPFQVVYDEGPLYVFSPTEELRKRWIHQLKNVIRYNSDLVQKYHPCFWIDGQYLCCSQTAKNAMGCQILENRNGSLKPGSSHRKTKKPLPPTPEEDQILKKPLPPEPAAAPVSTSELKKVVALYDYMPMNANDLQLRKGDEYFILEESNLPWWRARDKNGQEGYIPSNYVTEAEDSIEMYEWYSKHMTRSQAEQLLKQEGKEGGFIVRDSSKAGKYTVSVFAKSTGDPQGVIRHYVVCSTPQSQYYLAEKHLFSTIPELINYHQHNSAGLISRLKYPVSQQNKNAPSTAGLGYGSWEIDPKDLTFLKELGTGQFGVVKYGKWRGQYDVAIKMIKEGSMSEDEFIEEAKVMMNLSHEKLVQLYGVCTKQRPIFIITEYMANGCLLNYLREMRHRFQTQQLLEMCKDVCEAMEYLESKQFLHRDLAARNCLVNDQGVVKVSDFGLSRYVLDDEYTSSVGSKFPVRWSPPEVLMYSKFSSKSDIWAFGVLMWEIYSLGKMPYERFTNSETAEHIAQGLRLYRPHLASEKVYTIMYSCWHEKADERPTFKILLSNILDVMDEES
BTK phosphorylation at tyrosine 223, sequence (Q06187 whole entry): as above

With `C=CC(=O)Nc1ccccc1Nc1nc(Nc2ccc3c(c2)OCCOCCOCCO3)nc2[nH]cnc12` [Compound-11, N-[2-[[2-(2,5,8,11-tetraoxabicyclo[10.4.0]hexadeca-1(12),13,15-trien-14-ylamino)-9H-purin-6-yl]amino]phenyl]prop-2-enamide] the pIC50 (EGFR wt) was 5.72 and < 6.00, the pIC50 (BMX) was 8.92 and the pIC50 (BTK wt) was 8.63. For the same compound, the pEC50 [1] was 6.00 to 7.00, the pIC50 (ITK) was 6.57 and the pEC50 [2] was greater than 7.00. For the same compound, the pIC50 (FAK) was 7.76, the pIC50 (EOL-1 cells) was 7.60 and the pIC50 (ERK1 kinase) was 8.21. It also gave a pEC50 [3] greater than 7.00 and a pIC50 (MDA-MB-231 cells) of 6.52.
